Experimental data reported in article PMC6801708 (2019).

Test system: Pu22T14T23 (DNA, G4, none (G-to-T mutations at positions 14 and 23)) TGAGGGTGGGTAGGGTGGGTAA
Experiment: CD melting at 262 nm
Conditions: K+ (20 mM KCl); 5 mM phosphate pH 7.0; 1 µM DNA, 3 µM ligand; Tm 77.4 to 80.6

ΔTm	SMILES
+3.2 °C	CN(C)CCNC(=O)c1cccn2c(=O)c3cc4ccccc4cc3nc12
+3.2 °C	CN(C)CCNC(=O)c1cccn2c(=O)c3sc4ccccc4c3nc12
